We go through 5 compounds from patent US9273077B2, “Phosphorus derivatives as kinase inhibitors” (ARIAD Pharmaceuticals, Inc., priority 2008, dated 2016).

The term IC50 denotes the midpoint of a concentration-inhibition curve. The low end stands for greater potency in that assay, the high end for weaker potency in that assay.

T1 sequence (Q9UM73 19-1620): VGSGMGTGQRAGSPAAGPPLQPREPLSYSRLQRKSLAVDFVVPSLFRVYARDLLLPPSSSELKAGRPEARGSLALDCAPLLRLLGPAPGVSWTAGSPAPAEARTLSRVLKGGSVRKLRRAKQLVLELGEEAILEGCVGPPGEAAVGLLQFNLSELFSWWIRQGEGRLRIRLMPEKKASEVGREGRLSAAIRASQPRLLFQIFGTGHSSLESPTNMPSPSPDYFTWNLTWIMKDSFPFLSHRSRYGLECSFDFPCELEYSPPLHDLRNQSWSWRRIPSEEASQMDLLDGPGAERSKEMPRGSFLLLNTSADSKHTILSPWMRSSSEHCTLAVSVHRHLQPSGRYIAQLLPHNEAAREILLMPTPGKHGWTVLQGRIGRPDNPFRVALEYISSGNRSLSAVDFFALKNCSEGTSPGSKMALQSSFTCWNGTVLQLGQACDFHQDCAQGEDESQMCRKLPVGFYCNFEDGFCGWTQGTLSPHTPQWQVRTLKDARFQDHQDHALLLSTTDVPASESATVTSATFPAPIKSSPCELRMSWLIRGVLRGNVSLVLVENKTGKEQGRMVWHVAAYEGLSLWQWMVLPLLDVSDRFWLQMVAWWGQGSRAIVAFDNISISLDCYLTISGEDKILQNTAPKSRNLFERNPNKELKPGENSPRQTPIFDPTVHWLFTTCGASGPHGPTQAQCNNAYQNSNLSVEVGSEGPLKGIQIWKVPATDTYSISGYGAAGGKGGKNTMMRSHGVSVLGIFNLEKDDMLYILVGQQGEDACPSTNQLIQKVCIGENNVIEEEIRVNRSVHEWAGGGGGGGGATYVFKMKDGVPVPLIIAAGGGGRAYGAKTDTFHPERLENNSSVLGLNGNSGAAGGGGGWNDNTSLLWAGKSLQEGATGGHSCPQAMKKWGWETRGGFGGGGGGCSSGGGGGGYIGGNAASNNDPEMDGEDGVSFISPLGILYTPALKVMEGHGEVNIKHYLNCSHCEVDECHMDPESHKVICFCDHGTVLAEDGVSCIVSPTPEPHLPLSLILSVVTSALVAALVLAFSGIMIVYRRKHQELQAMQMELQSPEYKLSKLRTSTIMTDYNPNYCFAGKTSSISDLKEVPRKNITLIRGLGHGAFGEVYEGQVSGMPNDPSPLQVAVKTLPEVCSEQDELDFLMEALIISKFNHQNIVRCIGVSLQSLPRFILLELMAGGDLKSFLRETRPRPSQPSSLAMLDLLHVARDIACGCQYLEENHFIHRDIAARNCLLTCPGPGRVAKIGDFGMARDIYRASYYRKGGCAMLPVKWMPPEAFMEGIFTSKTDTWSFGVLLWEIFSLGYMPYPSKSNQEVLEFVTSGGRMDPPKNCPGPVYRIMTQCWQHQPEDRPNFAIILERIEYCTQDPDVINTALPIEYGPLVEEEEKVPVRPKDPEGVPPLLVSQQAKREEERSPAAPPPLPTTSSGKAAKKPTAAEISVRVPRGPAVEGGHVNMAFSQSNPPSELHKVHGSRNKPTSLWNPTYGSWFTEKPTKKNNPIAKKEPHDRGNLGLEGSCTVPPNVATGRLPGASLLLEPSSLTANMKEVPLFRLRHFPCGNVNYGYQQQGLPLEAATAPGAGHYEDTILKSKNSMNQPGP

This test addresses T1, ALK (Homo sapiens, UniProt Q9UM73).
T1 construct: Kinases are expressed as either kinase domains or full length constructs fused to glutathione S-transferase (GST) or polyHistidine tagged fusion proteins; made in house; host or cells: E. coli or Baculovirus-High Five (not specified which for ALK)
Description: inhibitory potency against ALK (kinase inhibition assay). Type of test: biochemical. An excerpt: More specifically, the compounds described herein are screened for kinase inhibition activity as follows. Kinases suitable for use in the following protocol include, but are not limited to: ALK, Jak2, b-Raf, c-Met, Tie-2, FLT3, Abl, Lck, Lyn, Src, Fyn, Syk, Zap-70, Itk, Tec, Btk, EGFR, ErbB2, Kdr, FLT1, Tek, InsR, and AKT.
Kinases are expressed as either kinase domains or full length constructs fused to glutathione S-transferase (GST) or polyHistidine tagged fusion proteins in either E. coli or Baculovirus-High Five expression systems. They are purified to near homogeneity by affinity chromatography as previously described (Lehr et al., 1996; Gish et al., 1995). In some instances, kinases are co-expressed or mixed with purified or partially purified regulatory polypeptides prior to measurement of activity.
Kinase activity and inhibition can be measured by established protocols (see e.g., Braunwalder et al., 1996). In such cases, the transfer of ^33PO4 from ATP to the synthetic substrates poly(Glu, Tyr) 4:1 or poly(Arg, Ser) 3:1 attached to the bioactive surface of microtiter plates is taken as a measure of enzyme activity. After an incubation period, the amount of phosphate transferred is measured by first washing the plate with 0.5% phosphoric acid, adding liquid scintillant, and then counting in a liquid scintillation detector. The IC50 is determined by the concentration of compound that causes a 50% reduction in the amount of ^33P incorporated onto the substrate bound to the plate.
For example, in one method, compounds can be tested for their ability to inhibit kinase activity of baculovirus-expressed ALK using a modification of the ELISA protocol reported for trkA in Angeles, T. S. et al., Anal. Biochem. 1996, 236, 49-55, which is incorporated herein by reference. Phosphorylation of the substrate, phopholipase C-gamma (PLC- ? ) generated as a fusion protein with glutathione-S-transferase (GST) as reported in rotin, D. et al., EMBO J. 1992, 11, 559-567, which is incorporated by reference, can be detected with europium-labeled anti-phosphotyrosine antibody and measured by time-resolved fluorescence (TRF). […] Detection of the phosphorylated product can be performed by adding 100 ? L/well of Eu-N1 labeled PT66 antibody (Perkim Elmer #AD0041). Incubation at 37 degrees C. then proceeds for one hour, followed by addition of 100 ? L enhancement solution (for example Wallac #1244-105). The plate is gently agitated and after thirty minutes, the fluorescence of the resulting solution can be measured (for example using EnVision 2100 (or 2102) multilabel plate reader from Perkin Elmer).
Data analysis can then be performed. IC50 values can be calculated by plotting percent inhibition versus log10 of concentration of compound.
The inhibition of ALK tyrosine kinase activity can also be measured using the recombinant kinase domain of the ALK in analogy to VEDG-R kinase assay described in J. Wood et al., Cancer Res 2000, 60, 2178-2189. In vitro enzyme assays using GST-ALK protein tyrosine kinase can be performed in 96-well plate as a filter binding assay in 20 mMTris.HCl, pH 7.5, 3 mM MgCl2, 10 mM MnCl2, […], 0.1 ? Ci/assay (=30 ? L) [ ? -^33P]-ATP, 2 ? M ATP, 3 ? g/mL poly (Glu, tyr 4:1) Poly-EY (sigma P-0275), 1% DMSO, 25 ng ALK enzyme. Assays can be incubated for 10 min, at ambient temperature. Reactions can be terminated by adding 50 ? L of 125 mM EDTA, and the reaction mixture can be transferred onto a MAIP Multiscreen plate (Millipore, Bedford, Mass.) previously wet with methanol, and rehydrated for 5 minutes with water. Following washing (0.5% H3PO4), plates can be counted in a liquid scintillation counter. IC50 values are calculated by linear regression analysis of the percentage inhibition.
`COc1cc(P(C)(C)=O)ccc1Nc1ncc2[nH]c(=O)n(-c3ccccc3S(=O)(=O)C(C)C)c2n1` [Example 29, 2-{[4-(dimethylphosphoryl)-2-methoxyphenyl]amino}-9-[2-(propan-2-ylsulfonyl)phenyl]-7,9-dihydro-8H-purin-8-one]: the 50% inhibitory concentration (IC50) is > 10 nM.

For the compound `COc1cc(P2(=O)CCNCC2)ccc1Nc1nccc(Nc2ccccc2S(=O)(=O)C(C)C)n1` [Example 30, N^2-[2-methoxy-4-(4-oxido-1,4-azaphosphinan-4-yl)phenyl]-N^4-[2-(propan-2-ylsulfonyl)phenyl]pyrimidine-2,4-diamine], the IC50 lay within 2 to 10 nM. Take `COc1cc(P(C)(C)=O)ccc1Nc1nc(Nc2ccccc2S(=O)(=O)C(C)C)c2cc[nH]c2n1` [Example 31, N^2-[4-(dimethylphosphoryl)-2-methoxyphenyl]-N^4-[2-(propan-2-ylsulfonyl)phenyl]-7H-pyrrolo[2,3-d]pyrimidine-2,4-diamine]: the IC50 is < 2 nM. As to `COc1nc(P(C)(C)=O)ccc1Nc1ncc(Cl)c(Nc2ccccc2S(=O)(=O)C(C)C)n1` [Example 32, 5-chloro-N^2-[6-(dimethylphosphoryl)-2-methoxypyridin-3-yl]-N^4-[2-(propan-2-ylsulfonyl)phenyl]pyrimidine-2,4-diamine], the IC50 was < 2 nM. Consider `COc1nc(P(C)(C)=O)cnc1Nc1ncc(Cl)c(Nc2ccccc2S(=O)(=O)C(C)C)n1` [Example 33, 5-chloro-N^2-[5-(dimethylphosphoryl)-3-methoxypyrazin-2-yl]-N^4-[2-(propan-2-ylsulfonyl)phenyl]pyrimidine-2,4-diamine], for which the IC50 was > 10 nM.
